The values that follow come from patent publication US7495104B2, “Quinoline or quinazoline derivatives inhibiting auto-phosphorylation of fibroblast growth factor receptors” (Kirin Beer Kabushiki Kaisha, priority 2001, dated 2009).

Where a name gives a salt, the structure may show the parent alone.

Chain of Bek (P21802 431-767 limits assumed): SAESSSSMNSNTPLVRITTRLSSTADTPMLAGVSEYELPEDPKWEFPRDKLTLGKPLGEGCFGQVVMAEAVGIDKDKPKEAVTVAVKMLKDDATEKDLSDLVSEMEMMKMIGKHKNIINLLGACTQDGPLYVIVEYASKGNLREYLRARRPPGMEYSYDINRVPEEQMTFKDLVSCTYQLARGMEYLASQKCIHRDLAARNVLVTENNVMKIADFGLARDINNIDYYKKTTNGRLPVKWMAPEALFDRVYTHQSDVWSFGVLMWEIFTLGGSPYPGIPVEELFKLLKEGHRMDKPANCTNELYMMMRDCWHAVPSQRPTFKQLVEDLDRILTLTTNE

The test addresses Bek (Homo sapiens, UniProt P21802). In words: Inhibitory activity against Bek-autophosphorylation using ELISA method in OCUM-2MD3 cells. Format: cell-based. The conditions noted are these: 1 hr with compound, read-out: IC50 (concentration necessary for inhibiting 50% of Bek-phosphorylation). The gist of the method:
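OCUM-2MD3 human scirrhous gastric cancer cells in 0.1% FCS were exposed to compound for 1 hr at 37° C, then lysed. Phospho-tyrosine proteins were captured with anti-phosphotyrosine antibody, probed with anti-Bek antibody and peroxidase read-out (A450). Positive control (1000 nM) set 0%, untreated 100%; IC50 from multi-level dilutions.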
On the technique in general: An ELISA detects its analyte on a solid surface through an enzyme-linked reagent.
Take `COc1cc2c(Oc3ccc(NC(=O)NCCC(C)(C)C)c(Cl)c3)ccnc2cc1OCCCN1CCN(C)CC1` [Compound 187, 1-(2-Chloro-4-{6-methoxy-7-[3-(4-methyl-piperazin-1-yl)-propoxy]-quinolin-4-yloxy}-phenyl)-3-(3,3-dimethyl-butyl)-urea]: the IC50 is 22.3 nM.

Turning to `COc1cc2c(Oc3ccc(NC(=O)NCCC(C)(C)C)c(Cl)c3)ccnc2cc1OCCN1CC(C)OC(C)C1` (stereo not shown) [Compound 125, 1-(2-Chloro-4-{7-[2-(2,6-dimethyl-morpholin-4-yl)-ethoxy]-6-methoxy-quinolin-4-yloxy}-phenyl)-3-(3,3-dimethyl-butyl)-urea], the IC50 stood at 13 nM.

As for `COc1cc2c(Oc3ccc(Nc4ccc(C(C)(C)C)cc4)c(Cl)c3)ccnc2cc1OCCN1CCC(CO)CC1` [Compound 279, [1-(2-{4-[4-(4-Tert-butyl-phenylamino)-3-chloro-phenoxy]-6-methoxy-quinolin-7-yloxy}-ethyl)-piperidin-4-yl]-methanol], the IC50 was found to be 370 nM.

Turning to `COc1cc2c(Oc3ccc(NC(=O)NCCC(C)(C)C)c(Cl)c3)ccnc2cc1OCCCN1CCC(CO)CC1` [Compound 266, 1-(2-Chloro-4-{7-[3-(4-hydroxymethyl-piperidin-1-yl)-propoxy]-6-methoxy-quinolin-4-yloxy}-phenyl)-3-(3,3-dimethyl-butyl)-urea], the IC50 was found to be 11 nM.

In the case of `COc1cc2c(Oc3ccc(Nc4ccc(C(C)(C)C)cc4)cc3)ccnc2cc1OCCNCC1CCCO1` (stereo not shown) [Compound 347, N1-[4-(Tert-butyl)phenyl]-4-[(6-methoxy-7-{2-[(tetrahydro-2-furanylmethyl)amino]ethoxy}-4-quinolyl)oxy]aniline], the IC50 amounted to 354 nM.

As for `COc1cc2ncnc(Oc3ccc(Nc4ccc(C(C)C)cc4)cc3)c2cc1OC` [Compound 72, [4-(6,7-Dimethoxyquinazolin-4-yloxy)phenyl]-(4-isopropyl-phenyl)amine], the IC50 turned out to be 836 nM.

Turning to `COc1cc2c(Oc3ccc(NC(=O)NCCC(C)(C)C)cc3)ccnc2cc1OCCCCN1CCCCC1` [Compound 157, 1-(3,3-Dimethyl-butyl)-3-{4-[6-methoxy-7-(4-piperidin-1-yl-butoxy)-quinolin-4-yloxy]-phenyl}-urea hydrochloride], the IC50 worked out at 28.5 nM.

Turning to `COc1cc2c(Oc3ccc(Nc4ccc(C(C)(C)C)cc4)cc3F)ccnc2cc1OCCN(CCO)CCO` [Compound 336, 2-[(2-{4-[4-(4-Tert-butyl-phenylamino)-2-fluoro-phenoxy]-6-methoxy-quinolin-7-yloxy}-ethyl)-(2-hydroxy-ethyl)-amino]-ethanol], the IC50 was 53 nM.

Consider `COc1cc2c(Oc3ccc(NC(=O)NCCC(C)(C)C)c(Cl)c3)ccnc2cc1OCC1CCNCC1` [Compound 168, 1-{2-Chloro-4-[6-methoxy-7-(piperidin-4-ylmethoxy)-quinolin-4-yloxy]-phenyl}-3-(3,3-dimethyl-butyl)-urea], for which the IC50 worked out at 24 nM.

For `COc1cc2c(Oc3ccc(NC(=O)NCCC(C)(C)C)cc3)ccnc2cc1OCCCN1CCC(CCO)CC1` [Compound 220, 1-(3,3-Dimethyl-butyl)-3-[4-(7-{3-[4-(2-hydroxy-ethyl)-piperidin-1-yl]-propoxy}-6-methoxy-quinolin-4-yloxy)-phenyl]-urea], the IC50 was 12 nM.

For the compound `COc1cc2nccc(Oc3ccc(Nc4ccc(N5CCOCC5)cc4)cc3)c2cc1OC` [Compound 44, [4-(6,7-Dimethoxyquinolin-4-yloxy)phenyl]-(4-morpholin-4-ylphenyl)amine], the IC50 was 76.5 nM.

Take `COc1cc2c(Oc3ccc(Nc4ccc(C(C)(C)C)cc4)cc3)ccnc2cc1OCCCN1CCC(CO)CC1` [Compound 217, [1-(3-{4-[4-(4-Tert-butyl-phenylamino)-phenoxy]-6-methoxy-quinolin-7-yloxy}-propyl)-piperidin-4-yl]-methanol]: the IC50 was determined as 40.9 nM.

In the case of `COc1cc2c(Oc3ccc(NC(=O)NCCC(C)(C)C)c(Cl)c3)ccnc2cc1OCCCN(C)C` [Compound 172, 1-{2-Chloro-4-[7-(3-dimethylamino-propoxy)-6-methoxy-quinolin-4-yloxy]-phenyl}-3-(3,3-dimethyl-butyl)-urea], the IC50 is less than 10 nM.

Turning to `COc1cc2nccc(Oc3ccc(NC(=O)NCCC(C)(C)CC(C)(C)C)c(F)c3)c2cc1OC` [Compound 149, 1-[4-(6,7-Dimethoxy-quinolin-4-yloxy)-2-fluoro-phenyl]-3-(3,3,5,5-tetramethyl-hexyl)-urea], the IC50 worked out at 218 nM.

On to `COc1cc2c(Oc3ccc(NC(=O)NCCC(C)(C)C)c(F)c3)ccnc2cc1OCCCN1CCOCC1` [Compound 210, 1-(3,3-Dimethyl-butyl)-3-{2-fluoro-4-[6-methoxy-7-(3-morpholin-4-yl-propoxy)-quinolin-4-yloxy]-phenyl}-urea], for which the IC50 is less than 10 nM.

For `COc1cc2nccc(Oc3ccc(Cc4ccc(C(C)(C)C)cc4)cc3)c2cc1OC` [Compound 32, 4-[4-(4-Tert-butylbenzyl)phenoxy]-6,7-dimethoxyquinoline], the IC50 was found to be 693 nM.

Take `COc1cc2c(Oc3ccc(NC(=O)NCCC(C)(C)C)cc3)ccnc2cc1OCCCN1CCC(c2ccccc2)CC1` [Compound 246, 1-(3,3-Dimethyl-butyl)-3-(4-{6-methoxy-7-[3-(4-phenyl-piperidin-1-yl)-propoxy]-quinolin-4-yloxy}-phenyl)-urea]: the IC50 worked out at 30.9 nM.

As for `COc1cc2c(Oc3ccc(NC(=O)NCCC(C)(C)C)c(Cl)c3)ccnc2cc1OCCN1C(=O)c2ccccc2C1=O` [Compound 173, 1-(2-Chloro-4-{7-[2-(1,3-dioxo-1,3-dihydro-isoindol-2-yl)-ethoxy]-6-methoxy-quinolin-4-yloxy}-phenyl)-3-(3,3-dimethyl-butyl)-urea], the IC50 turned out to be 153 nM.

`COc1cc2c(Oc3ccc(Nc4ccc(C(C)(C)C)cc4)c(F)c3)ccnc2cc1OCCN(CCO)CCO` [Compound 335, 2-[(2-{4-[4-(4-Tert-butyl-phenylamino)-3-fluoro-phenoxy]-6-methoxy-quinolin-7-yloxy}-ethyl)-(2-hydroxy-ethyl)-amino]-ethanol]: the IC50 came to 95.3 nM.

With `COc1cc2c(Oc3ccc(NC(=O)NCCC(C)(C)C)c(Cl)c3)ccnc2cc1OCCCN1CCCN(C)CC1` [Compound 188, 1-(2-Chloro-4-{6-methoxy-7-[3-(4-methyl-[1,4]diazepan-1-yl)-propoxy]-quinolin-4-yloxy}-phenyl)-3-(3,3-dimethyl-butyl)-urea], the IC50 came to 29.9 nM.

Turning to `COc1cc2c(Oc3ccc(NC(=O)NCCC(C)(C)C)c(F)c3)ccnc2cc1OCCNCCO` [Compound 329, 1-(3,3-Dimethyl-butyl)-3-(2-fluoro-4-{7-[2-(2-hydroxy-ethylamino)-ethoxy]-6-methoxy-quinolin-4-yloxy}-phenyl)-urea], the IC50 was found to be 20.8 nM.

Take `COc1cc2c(Oc3ccc(NC(=O)NCCC(C)(C)C)c(Cl)c3)ccnc2cc1OCCCNCCO` [Compound 334, 1-(2-Chloro-4-{7-[3-(2-hydroxy-ethylamino)-propoxy]-6-methoxy-quinolin-4-yloxy}-phenyl)-3-(3,3-dimethyl-butyl)-urea]: the IC50 was 16.5 nM.

For `COc1cc2c(Oc3ccc(NC(=O)NCCC(C)(C)C)cc3F)ccnc2cc1OCCN1CCC(O)CC1` [Compound 296, 1-(3,3-Dimethyl-butyl)-3-(3-fluoro-4-{7-[2-(4-hydroxy-piperidin-1-yl)-ethoxy]-6-methoxy-quinolin-4-yloxy}-phenyl)-urea], the IC50 was 19.8 nM.

For `COc1cc2c(Oc3ccc(NC(=O)NCCC(C)(C)C)c(Cl)c3)ccnc2cc1OCc1ccccc1` [Compound 163, 1-[4-(7-Benzyloxy-6-methoxy-quinolin-4-yloxy)-2-chloro-phenyl]-3-(3,3-dimethyl-butyl)-urea], the IC50 is 370 nM.

For `CCN(CC)CCOc1cc2nccc(Oc3ccc(NC(=O)NCCC(C)(C)C)c(Cl)c3)c2cc1OC` [Compound 167, 1-{2-Chloro-4-[7-(2-diethylamino-ethoxy)-6-methoxy-quinolin-4-yloxy]-phenyl}-3-(3,3-dimethyl-butyl)-urea], the IC50 is 95 nM.

Take `COc1cc2c(Oc3ccc(NC(=O)NCCC(C)(C)C)cc3)ccnc2cc1OCCNCCO` [Compound 372, 1-(3,3-Dimethyl-butyl)-3-(4-{7-[2-(2-hydroxy-ethylamino)-ethoxy]-6-methoxy-quinolin-4-yloxy}-phenyl)-urea]: the IC50 was less than 10 nM.

For the compound `CCN(CC)CCCOc1cc2nccc(Oc3ccc(NC(=O)NCCC(C)(C)C)c(Cl)c3)c2cc1OC` [Compound 183, 1-{2-Chloro-4-[7-(3-diethylamino-propoxy)-6-methoxy-quinolin-4-yloxy]-phenyl}-3-(3,3-dimethyl-butyl)-urea], the IC50 amounted to 15.4 nM.

`COc1cc2c(Oc3ccc(NC(=O)NCCC(C)(C)C)c(Cl)c3)ccnc2cc1OCCN1CCC(C)CC1` [Compound 117, 1-(2-Chloro-4-{6-methoxy-7-[2-(4-methyl-piperidin-1-yl)-ethoxy]-quinolin-4-yloxy}-phenyl)-3-(3,3-dimethyl-butyl)-urea]: the IC50 was determined as 178 nM.

For `COc1cc2c(Oc3ccc(Nc4ccc(C(C)(C)C)cc4)cc3)ccnc2cc1OCC(O)CN1CC(C)CC(C)C1` (stereo not shown) [Compound 254, 1-{4-[4-(4-Tert-butyl-phenylamino)-phenoxy]-6-methoxy-quinolin-7-yloxy}-3-(3,5-dimethyl-piperidin-1-yl)-propan-2-ol], the IC50 was found to be 94.2 nM.

For `COc1cc2c(Oc3ccc(Nc4ccc(C(C)(C)C)cc4)cc3)ccnc2cc1OCCN1CCCC1` [Compound 39, (4-Tert-butylphenyl)-{4-[6-methoxy-7-(2-pyrrolidin-1-ylethoxy)-quinolin-4-yloxy]phenyl}amine], the IC50 is 570 nM.

Consider `COc1cc2c(Oc3ccc(NC(=O)NCCC(C)(C)C)cc3)ccnc2cc1OCC(O)CN1CC(C)OC(C)C1` (stereo not shown) [Compound 250, 1-(3,3-Dimethyl-butyl)-3-(4-{7-[3-(2,6-dimethyl-morpholin-4-yl)-2-hydroxy-propoxy]-6-methoxy-quinolin-4-yloxy}-phenyl)-urea], for which the IC50 is less than 10 nM.
